Here are results for 23 compounds from US7582611B2, “Motilide compounds” (Pfizer Inc., priority 2005, dated 2009).

In brackets after ≈: the same amount, converted by molar mass.

In experiment [1] the test system is Streptococcus pneumoniae ATCC 6301. Nature of the experiment: Evaluation of antibacterial activity (MIC, serial dilutions on 96-well microtiter plates). Format: cell-based. As to conditions: ATCC6301, read-out: Antibacterial Activity (MIC, μg/mL).
For experiment [2], the target named is T1, Motilin Receptor (Oryctolagus cuniculus, UniProt G1T803).
T1 construct: strips of longitudinal smooth muscle were sliced from the segments; from tissue; host or cells: rabbit duodenum longitudinal smooth muscle strips
Nature of the experiment: Tissue based assay for motilin agonist potency (rabbit duodenum contractility). Format: cell-based. As to conditions: rabbit duodenum strips, contraction normalized to 1 μM carbachol; read-out: Motilin Receptor Agonist Activity (EC50). The procedure:
The motilin agonist potencies of compounds of this invention were evaluated using a tissue based assay, using rabbit duodenum tissue-based contractility assay, generally following the procedure of Depoortere et al., J. Gastrointestinal Motility, 1, 150-159 (1989), the disclosure of which is incorporated herein by reference. Briefly, this method measures the ability of a compound to induce contractions in rabbit duodenal tissue, a motilin receptor-bearing tissue contractilely responsive to motilin.
Strips of rabbit duodenum were tested and qualified for use in the assay by as follows. Segments of rabbit duodenum, 20-30 cm distal to the pylorus were split longitudinally. The mucosa was removed and 2×2×15 mm strips of longitudinal smooth muscle were sliced from the segments. The strips were bathed in oxygenated Krebs solution at 37° C., with 1.5 g of tension, and contractions measured auxotonically.
The carbachol was then washed away by changing the organ bath buffer twice. The strips were washed again 20±5 minutes following the carbachol contraction. Following this last wash a dose response study was initiated within 10±5 min. Each compound tested was dissolved in dimethylsulfoxide (DMSO) to a final concentration of 10 mM. A series of seven 10× serial dilutions in water was prepared, so that the concentration of the seventh serial dilution was 1.0×10^−6 mM. The first through fifth serial dilutions of the compound were applied, starting with 200 μL of the most dilute solution. After each application, there was a wait of 2±0.5 min, until the response was stable, before the application of the next dose (the next higher concentration serial dilution). The dose was increased in 10-fold increments until a small response was observed. Subsequent doses were the increased in 2- to 5-fold increments, until the maximum response was obtained. At 2±0.5 min after the last drug addition, the strips were dosed with 1 μM carbachol.
The EC50 (concentration producing a half-maximal effect) was calculated as follows. The basal tension was subtracted from the compound-induced tension for each reading. The data points were normalized against the response obtained from 1 μM carbachol at the end of the experiment. The concentration of compound was plotted against the response and fitted to the following equation: R=(Rmax·C)/(EC50+C) where R is the contraction response, Rmax is the maximal contraction response, and C is the concentration of compound. Both R and Rmax are expressed as a fraction of the 1 μM carbachol contraction and range from 0 to 1.

T1 sequence (G1T803 1-400): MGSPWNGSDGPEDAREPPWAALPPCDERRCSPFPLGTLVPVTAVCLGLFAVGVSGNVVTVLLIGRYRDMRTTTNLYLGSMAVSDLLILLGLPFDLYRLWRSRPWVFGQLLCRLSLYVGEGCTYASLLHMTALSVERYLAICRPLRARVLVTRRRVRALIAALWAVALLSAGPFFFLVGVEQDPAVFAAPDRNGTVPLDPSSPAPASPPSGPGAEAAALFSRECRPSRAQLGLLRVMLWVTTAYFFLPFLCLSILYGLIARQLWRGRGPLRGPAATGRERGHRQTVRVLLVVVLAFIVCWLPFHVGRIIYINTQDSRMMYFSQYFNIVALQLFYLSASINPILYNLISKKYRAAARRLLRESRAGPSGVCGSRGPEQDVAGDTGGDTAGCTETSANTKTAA

On to `CC[C@H]1OC(=O)[C@H](C)[C@@H](OC2C[C@@](C)(OC)C[C@H](C)O2)[C@H](C)[C@@H](OC2O[C@H](C)C[C@H](N(C)CC)[C@H]2O)[C@@]2(C)CC(C)=C(O2)[C@H](C)[C@@H](O)[C@H]1C` (stereo partly shown) [ABT-229, reference compound], for which the MIC in experiment [1] was determined as 64 µg/mL (≈ 91.7 µM). Moreover, in experiment [2], the EC50 is 7 nM.

In the case of `CC[C@H]1OC(=O)[C@H](C)[C@@H](O[C@H]2C[C@@](C)(OC)[C@@H](O)[C@H](C)O2)[C@H](C)[C@@H](O[C@@H]2O[C@H](C)C[C@H](N(C)C(C)C)[C@H]2O)[C@](C)(O)C[C@@H](C)[C@H](OC)[C@H](C)[C@@H](O)[C@]1(C)O` [Compound A-1], the EC50 in experiment [2] stood at 66 nM.

As to `CC[C@H]1OC(=O)[C@H](C)[C@@H](O[C@H]2C[C@@](C)(OC)[C@@H](O)[C@H](C)O2)[C@H](C)[C@@H](O[C@@H]2O[C@H](C)C[C@H](N(C)CCO)[C@H]2O)[C@](C)(O)C[C@@H](C)[C@H](OC)[C@H](C)[C@@H](O)[C@]1(C)O` [Compound A-2], the MIC in experiment [1] came out at 64 µg/mL (≈ 82.1 µM). The EC50 in experiment [2] was found to be 140 nM.

Turning to `CC[C@H]1OC(=O)[C@H](C)[C@@H](O[C@H]2C[C@@](C)(OC)[C@@H](O)[C@H](C)O2)[C@H](C)[C@@H](O[C@@H]2O[C@H](C)C[C@H](N(C)C(C)C)[C@H]2O)[C@](C)(O)C[C@@H](C)[C@H](OCCO)[C@H](C)[C@@H](O)[C@]1(C)O` [Compound A-3], the MIC in experiment [1] stood at 64 µg/mL (≈ 79.2 µM). The EC50 in experiment [2] is 54 nM.

For `CC[C@H]1OC(=O)[C@H](C)[C@@H](O[C@H]2C[C@@](C)(OC)[C@@H](O)[C@H](C)O2)[C@H](C)[C@@H](O[C@@H]2O[C@H](C)C[C@H](N(C)C(C)C)[C@H]2O)[C@](C)(O)C[C@@H](C)[C@H](OCCOC)[C@H](C)[C@@H](O)[C@]1(C)O` [Compound A-5], the MIC in experiment [1] stood at 64 µg/mL (≈ 77.9 µM). Also, in experiment [2], the EC50 was 320 nM.

As for `CC[C@H]1OC(=O)[C@H](C)[C@@H](O[C@H]2C[C@@](C)(OC)[C@@H](O)[C@H](C)O2)[C@H](C)[C@@H](O[C@@H]2O[C@H](C)C[C@H](N(C)C[C@H](C)O)[C@H]2O)[C@](C)(O)C[C@@H](C)[C@H](OCCOC)[C@H](C)[C@@H](O)[C@]1(C)O` [Compound A-6], the MIC in experiment [1] was determined as 128 µg/mL (≈ 153 µM). Also, the EC50 in experiment [2] amounted to 1100 nM.

Take `CC[C@H]1OC(=O)[C@H](C)[C@@H](O[C@H]2C[C@@](C)(OC)[C@@H](O)[C@H](C)O2)[C@H](C)[C@@H](O[C@@H]2O[C@H](C)C[C@H](N(C)C(C)C)[C@H]2O)[C@](C)(O)C[C@@H](C)[C@H](OCC#N)[C@H](C)[C@@H](O)[C@]1(C)O` [Compound A-7]: the MIC in experiment [1] was > 128 µg/mL. Also, the concentration for a half-maximal effect (EC50) in experiment [2] amounted to 210 nM.

In the case of `CCOC(=O)CO[C@@H]1[C@H](C)[C@@H](O)[C@](C)(O)[C@@H](CC)OC(=O)[C@H](C)[C@@H](O[C@H]2C[C@@](C)(OC)[C@@H](O)[C@H](C)O2)[C@H](C)[C@@H](O[C@@H]2O[C@H](C)C[C@H](N(C)C(C)C)[C@H]2O)[C@](C)(O)C[C@H]1C` [Compound A-8], in experiment [1], the MIC stood at 128 µg/mL (≈ 151 µM). Besides, the EC50 in experiment [2] turned out to be 88 nM.

As for `CCOC(=O)CO[C@@H]1[C@H](C)[C@@H](O)[C@](C)(O)[C@@H](CC)OC(=O)[C@H](C)[C@@H](O[C@H]2C[C@@](C)(OC)[C@@H](O)[C@H](C)O2)[C@H](C)[C@@H](O[C@@H]2O[C@H](C)C[C@H](N(C)C[C@H](C)O)[C@H]2O)[C@](C)(O)C[C@H]1C` [Compound A-9], the MIC in experiment [1] was > 128 µg/mL. Further, the EC50 in experiment [2] is 430 nM.

Take `CCOC(=O)CO[C@@H]1[C@H](C)[C@@H](O)[C@](C)(O)[C@@H](CC)OC(=O)[C@H](C)[C@@H](O[C@H]2C[C@@](C)(OC)[C@@H](O)[C@H](C)O2)[C@H](C)[C@@H](O[C@@H]2O[C@H](C)C[C@H](N(C)C3CCC3)[C@H]2O)[C@](C)(O)C[C@H]1C` [Compound A-10]: the MIC in experiment [1] was > 128 µg/mL. Besides, the EC50 in experiment [2] was 680 nM.

As to `CC[C@H]1OC(=O)[C@H](C)[C@@H](O[C@H]2C[C@@](C)(OC)[C@@H](O)[C@H](C)O2)[C@H](C)[C@@H](O[C@@H]2O[C@H](C)C[C@H](N(C)C[C@H](C)O)[C@H]2O)[C@](C)(O)C[C@@H](C)[C@H](OCC(=O)O)[C@H](C)[C@@H](O)[C@]1(C)O` [Compound A-11], in experiment [1], the MIC is > 128 µg/mL. In addition, the EC50 in experiment [2] turned out to be 740 nM.

`CC[C@H]1OC(=O)[C@H](C)[C@@H](O[C@H]2C[C@@](C)(OC)[C@@H](O)[C@H](C)O2)[C@H](C)[C@@H](O[C@@H]2O[C@H](C)C[C@H](N(C)C(C)C)[C@H]2O)[C@](C)(O)C[C@@H](C)[C@H](OCC(N)=O)[C@H](C)[C@@H](O)[C@]1(C)O` [Compound A-12]: the MIC in experiment [1] worked out at 64 µg/mL (≈ 77.9 µM). Besides, the EC50 in experiment [2] came out at 52 nM.

As to `CC[C@H]1OC(=O)[C@H](C)[C@@H](O[C@H]2C[C@@](C)(OC)[C@@H](O)[C@H](C)O2)[C@H](C)[C@@H](O[C@@H]2O[C@H](C)C[C@H](N(C)C3CCC3)[C@H]2O)[C@](C)(O)C[C@@H](C)[C@H](OCC(N)=O)[C@H](C)[C@@H](O)[C@]1(C)O` [Compound A-13], the MIC in experiment [1] is > 128 µg/mL. The concentration giving a half-maximal response (EC50) in experiment [2] turned out to be 220 nM.

With `CC[C@H]1OC(=O)[C@H](C)[C@@H](O[C@H]2C[C@@](C)(OC)[C@@H](O)[C@H](C)O2)[C@H](C)[C@@H](O[C@@H]2O[C@H](C)C[C@H](N(C)C[C@H](C)O)[C@H]2O)[C@](C)(O)C[C@@H](C)[C@H](OCC(N)=O)[C@H](C)[C@@H](O)[C@]1(C)O` [Compound A-14], the MIC in experiment [1] is > 128 µg/mL. Further, the half-maximal effective concentration (EC50) in experiment [2] came to 104 nM.

With `CC[C@H]1OC(=O)[C@H](C)[C@@H](O[C@H]2C[C@@](C)(OC)[C@@H](O)[C@H](C)O2)[C@H](C)[C@@H](O[C@@H]2O[C@H](C)C[C@H](N(C)C(C)C)[C@H]2O)[C@](C)(O)C[C@@H](C)[C@H](OCC(=O)N(C)C)[C@H](C)[C@@H](O)[C@]1(C)O` [Compound A-15], in experiment [1], the MIC was 64 µg/mL (≈ 75.4 µM). Besides, in experiment [2], the EC50 stood at 660 nM.

Regarding `CC[C@H]1OC(=O)[C@H](C)[C@@H](O[C@H]2C[C@@](C)(OC)[C@@H](O)[C@H](C)O2)[C@H](C)[C@@H](O[C@@H]2O[C@H](C)C[C@H](N(C)C[C@H](C)O)[C@H]2O)[C@](C)(O)C[C@@H](C)[C@H](OCC(=O)N(C)C)[C@H](C)[C@@H](O)[C@]1(C)O` [Compound A-16], the MIC in experiment [1] was > 128 µg/mL. Besides, the concentration giving a half-maximal response (EC50) in experiment [2] is 2900 nM.

Take `CC[C@H]1OC(=O)[C@H](C)[C@@H](O[C@H]2C[C@@](C)(OC)[C@@H](O)[C@H](C)O2)[C@H](C)[C@@H](O[C@@H]2O[C@H](C)C[C@H](N(C)C(C)C)[C@H]2O)[C@](C)(O)C[C@@H](C)[C@H](OC(N)=O)[C@H](C)[C@@H](O)[C@]1(C)O` [Compound A-17]: the MIC in experiment [1] came out at 64 µg/mL (≈ 79.3 µM). The EC50 in experiment [2] was 650 nM.

In the case of `CC[C@H]1OC(=O)[C@H](C)[C@@H](O[C@H]2C[C@@](C)(OC)[C@@H](O)[C@H](C)O2)[C@H](C)[C@@H](O[C@@H]2O[C@H](C)C[C@H](N(C)C(C)C)[C@H]2O)[C@](C)(O)C[C@@H](C)[C@H](OC(=O)N(C)C)[C@H](C)[C@@H](O)[C@]1(C)O` [Compound A-18], in experiment [1], the MIC is 128 µg/mL (≈ 153 µM). For the same compound, the EC50 in experiment [2] worked out at 310 nM.

Turning to `CC[C@H]1OC(=O)[C@H](C)[C@@H](O[C@H]2C[C@@](C)(OC)[C@@H](O)[C@H](C)O2)[C@H](C)[C@@H](O[C@@H]2O[C@H](C)C[C@H](N(C)C3CCC3)[C@H]2O)[C@](C)(O)C[C@@H](C)[C@H](OC)[C@H](C)[C@@H](O)[C@]1(C)O` [Compound A-47], the EC50 in experiment [2] came to 220 nM.

In the case of `CC[C@H]1OC(=O)[C@H](C)[C@@H](O[C@H]2C[C@@](C)(OC)[C@@H](O)[C@H](C)O2)[C@H](C)[C@@H](O[C@@H]2O[C@H](C)C[C@H](N(C)C(C)C)[C@H]2O)[C@](C)(OC)C[C@@H](C)[C@H](OCC(=O)NC)[C@H](C)[C@@H](O)[C@]1(C)O` [Compound A-66], the EC50 in experiment [2] turned out to be 400 nM.

As to `CC[C@H]1OC(=O)[C@H](C)[C@@H](O[C@H]2C[C@@](C)(OC)[C@@H](O)[C@H](C)O2)[C@H](C)[C@@H](O[C@@H]2O[C@H](C)C[C@H](N(C)C(C)C)[C@H]2O)[C@](C)(O)C[C@@H](C)[C@H](OCC(=O)NOC)[C@H](C)[C@@H](O)[C@]1(C)O` [Compound A-69], the EC50 in experiment [2] was found to be 92 nM.

On to `CC[C@H]1OC(=O)[C@H](C)[C@@H](O[C@H]2C[C@@](C)(OC)[C@@H](O)[C@H](C)O2)[C@H](C)[C@@H](O[C@@H]2O[C@H](C)C[C@H](N(C)C(C)C)[C@H]2O)[C@](C)(O)C[C@@H](C)[C@H](OCCNC=O)[C@H](C)[C@@H](O)[C@]1(C)O` [Compound A-78], for which the concentration giving a half-maximal response (EC50) in experiment [2] amounted to 31 nM.

`CC[C@H]1OC(=O)[C@H](C)[C@@H](O[C@H]2C[C@@](C)(OC)[C@@H](O)[C@H](C)O2)[C@H](C)[C@@H](O[C@@H]2O[C@H](C)C[C@H](N(C)C(C)C)[C@H]2O)[C@](C)(O)C[C@@H](C)[C@H](OC(=O)NC)[C@H](C)[C@@H](O)[C@]1(C)O` [Compound A-79]: the 50% effective concentration (EC50) in experiment [2] worked out at 400 nM.
